Experiments:
T-lymphocytes = test: Lymphocyte proliferation in vitro (viable cell count, trypan blue); format: cell-based, female C57B1/6 mice; conditions: 96 hours incubation; FIG. 17
Experimental: T-lymphocytes were harvested from lymph nodes of female C57B1/6 mice by standard methodology and seeded (1.3×10^6 cells/ml) in 96 well plate […]. Thereafter, UBE was added to the culture at the indicated concentrations and incubated for 96 hours (6% CO2, 37° C.). The medium containing the polypeptide was replaced after 48 hours of incubation. Viable cells (trypan blue staining) were counted a light microscope.

Female Balb/C mice = test: Ovalbumin-induced asthma in mice, eosinophils in bronchoalveolar lavage; format: in vivo; conditions: UBE i.n. 50 ng/mouse on days 24 and 27, one hour before OVA; day 29; FIG. 21
Experimental: 20 ul of 5% Ovalbumin (OVA) was added to 8.75 ml of sterile saline, which was then added stepwise to a solution of 1.25 ml of 40 mg/ml ImjectAlum (Pierce), and subjected to rocking at room temperature for 30-60 minutes, to facilitate optimal alum absorption to the Ovalbumin (Alum/Ova). Female Balb/C mice were then injected with 200 ul of Alum/Ova i.p, according to the following protocol:
On Days 0 and 14, mice were injected i.p with OVA/Alum.
On day 24 mice were injected intranasally (i.n.) with. UBE/saline (50 ng/50 μl/mouse, 25 μl to each nostril) and then after one hour, mice were injected i.n with OVA (50 μg/50 μl/mouse, 25 μl to each nostril).
On Day 27, mice were injected i.n. UBE/saline (50 ng/50 μl/mouse, 25 μl to each nostril) and then 1 hour subsequently were again injected i.n. with OVA (50 μg/50 μl/mouse). Mice were then sacrificed on day 29, and bronchoalveolar fluid was obtained by lung lavage (1 ml of 10% FCS-heat inactivated in PBS), and the percent of eosinophils seen in lavage fluid versus white cell count was ascertained by microscopic evaluation of smears.

Female C57BL/6 mice = test: Experimental autoimmune encephalitis (EAE), MOG 35-55 induced, neurological score; format: in vivo; conditions: thrice a week
Experimental: (§1) Female C57BL/6 mice were injected subcutaneously into 4 sites on the back, adjacent to each of the forelimbs and hindlimbs (total amount 200 μl) with a myelin oligodendritic glycoprotein (MOG) 35-55 fragment emulsified with complete Freund's adjuvant. Thereafter, each animal was i.p. injected with pertusis toxin (PTX; 200 ng/mouse) in PBS and an additional
PTX injection was repeated 2 days later, which is a standard protocol for initiating experimental autoimmune encephalomyelitis (EAE) in mice. UBE polypeptide (SEQ ID NO:2) was intraperitoneally (i.p.) injected (0.3 μg/kg, thrice a week) five days after MOG immunization (day of onset of symptoms). The animals were evaluated for neurological score from 0 (no effect) to 6 (severe neurological symptoms including paralysis). Results are the mean±SE of neurological score (sum of all scores divided by the number of animals in each experimental group) at each of the indicated time intervals after MOG injection.
as §1, with “additional PTX injection was repeated 2 days later. Four days after MOG immunization, each mouse received i.p. injections (1 μg/kg, thrice a week) of each of the following polypeptides:” for “additional”
The animals were evaluated for neurological score from 0 (no effect) to 6 (severe neurological symptoms including paralysis). Results are the mean±SE of neurological score (sum of all scores divided by the number of animals in each experimental group) at each of the indicated time intervals after immunization.

Female NZBW/F1 mice = test: Spontaneous lupus-like syndrome in NZBW/F1 mice (second SLE model); format: in vivo; conditions: FIG. 11B
female MRL/lpr mice = test: Spontaneous lupus-like syndrome in MRL/lpr mice (Systemic Lupus Erythematosus model); format: in vivo
Experimental: MRL/lpr mice develop a lupus-like syndrome spontaneously. UBE (SEQ ID NO:2) (1 μg/kg) was administered to female MRL/lpr mice thrice a week, starting at age of 12 weeks. Urine was obtained by spontaneous urination and the levels of protein (mg/dl) and erythrocytes (cells/dl) in the urine were evaluated throughout the treatment period (4 weeks) using commercial sticks.
In order to determine the levels of anti-dsDNA antibodies, blood was obtained by cardiac puncture of the MRL/lpr mice after 4 weeks of UBE treatment, and the serum levels of anti-dsDNA antibodies were evaluated using a commercial ELISA kit.
Serum levels of anti-dsDNA antibodies were determined by ELISA with the aid of a commercial kit (Euroimmun, Lubeck, Germany) following the manufacturer's instructions and detection antibodies were purchased for use with same (Bethyl Laboratories, Montgomery, Tex., USA).
Quantitative histopathology analysis of the kidneys was also performed. The kidneys of the mice after 4 weeks of UBE treatment were removed, fixed in formalin, sliced, and stained by H&E and by periodic acid […] stain. Representative histophathologies of the glomeruli and tubulointerstitial areas in control versus UBE treated mice is shown FIGS. 7C and 7D, versus 7E and 7F at 2× and 20×, respectively. The quantitative histopathology analysis is presented in FIG. 7A and FIG. 7B, respectively.
To evaluate the effect of UBE on lymphocyte function in MRL/lpr mice, peripheral lymph nodes and spleen cells were isolated from the control and UBE-treated mice and subjected to FACS analysis probing for CD4, CD8 and B220 marker expression (FIG. 8). Peripheral lymph node cells were positively selected for CD3 expression and the percent of CD3+ cells, which were negative for CD4− and CD8− expression was evaluated. Representative results from control and UBE treated animals are shown in FIGS. 8A and 8B, respectively. […] Spleen cells were similarly evaluated and representative results from control and UBE treated animals are shown in FIGS. 8C and 8D, respectively.
In parallel, peripheral lymph node cells were positively selected for B220+ expression. Representative results from control and UBE treated animals are shown in FIGS. 8G and 8H, respectively. […] Spleen cells were similarly evaluated and representative results from control and UBE treated animals are shown in FIGS. 8I and 8J, respectively.

[1] = after 4 weeks of UBE treatment, 1 μg/kg, FIG. 7

**Q.** With “SMPPIVRFDHPFLFIIFEEHTQSPLFVGKVVDPTHK (listed as Mus musculus) [UBE, 36-mer peptide corresponding to residues 378-413 of Mus musculus alpha-1-antitrypsin (serpin a1c)]” as the sequence, how does the “concentration of maximal effect on T cell proliferation” value (T-lymphocytes) read?
**A.** 1 ng/mL

**Q.** And the “eosinophil concentration in lavage fluid (percent of eosinophils versus white cell count)” value (Female Balb/C mice)?
**A.** dramatic reduction

**Q.** What about the “neurological symptoms (neurological score 0 to 6)” value (Female C57BL/6 mice; i.p. 0.3 μg/kg, from five days after MOG immunization, FIG. 2) of the same sequence?
**A.** reduced the neurological symptoms

**Q.** And the “neurological symptoms (neurological score 0 to 6)” value (Female C57BL/6 mice; i.p. 1 μg/kg, from four days after MOG immunization, FIG. 3)?
**A.** reduced the neurological symptoms

**Q.** And the proteinuria (Female NZBW/F1 mice; UBE 1 μg/kg)?
**A.** reduced proteinuria in a significant manner

**Q.** And the proteinuria (Female NZBW/F1 mice; UBE 3 μg/kg)?
**A.** reduced proteinuria in a significant manner

**Q.** What about the “proteinuria (urinary protein)” value (female MRL/lpr mice; 1 μg/kg thrice a week from age of 12 weeks, 4 weeks, FIG. 4) of the same sequence?
**A.** significant reduction

**Q.** And the urinary microhematuria (female MRL/lpr mice; 1 μg/kg thrice a week from age of 12 weeks, 4 weeks, FIG. 5)?
**A.** significant reduction

**Q.** What about the “anti-dsDNA antibodies in the blood (serum, ELISA)” value (female MRL/lpr mice; after 4 weeks of UBE treatment, 1 μg/kg, FIG. 6) of the same sequence?
**A.** significant reduction

**Q.** And the “pathological score of the glomeruli (kidney histopathology)” value (female MRL/lpr mice; [1])?
**A.** significant reduction

**Q.** And the “pathological score of the tubulointerstitial areas (kidney histopathology)” value (female MRL/lpr mice; [1])?
**A.** significant reduction

**Q.** What about the “percent of B220+ cells, FACS” value (female MRL/lpr mice; peripheral lymph nodes) of the same sequence?
**A.** dramatically reduced

**Q.** And the “double negative CD4−CD8− cells (expressed as percent CD3+), FACS” value (female MRL/lpr mice; peripheral lymph nodes, FIG. 8E)?
**A.** dramatically reduced

**Q.** And the “percent of B220+ cells, FACS” value (female MRL/lpr mice; spleen cells)?
**A.** dramatically reduced

**Q.** What about the “double negative CD4−CD8− cells, FACS” value (female MRL/lpr mice; spleen cells, FIG. 8F) of the same sequence?
**A.** dramatically reduced

Reference: patent US9518107B2, “Pharmaceutical compositions containing polypeptides derived from α-1 antitrypsin and methods of use thereof” (YISSUM RESEARCH DEVELOPMENT COMPANY OF THE HEBREW …, priority 2010, dated 2016)
